Among the data in BindingDB's records for doi:10.1124/jpet.104.066787 (Georgetown University, 2004) are Ki values, retold here.

Experiment [1] deals with Neuronal acetylcholine receptor subunit alpha-2 (Rattus norvegicus, UniProt P12389).
For experiment [2], the target named is Neuronal acetylcholine receptor subunit alpha-3 (Rattus norvegicus, UniProt P04757).
The target in experiment [3] is Neuronal acetylcholine receptor subunit alpha-4 (Rattus norvegicus, UniProt P09483).
The target in experiment [4] is Nicotinic acetylcholine receptor (Rattus norvegicus).

Each structure is given as a SMILES string. Where “and” joins values, the source holds several entries; their conditions need not be identical. Equal values may be shown once.

Sequence of Neuronal acetylcholine receptor subunit alpha-4 (P09483 whole entry): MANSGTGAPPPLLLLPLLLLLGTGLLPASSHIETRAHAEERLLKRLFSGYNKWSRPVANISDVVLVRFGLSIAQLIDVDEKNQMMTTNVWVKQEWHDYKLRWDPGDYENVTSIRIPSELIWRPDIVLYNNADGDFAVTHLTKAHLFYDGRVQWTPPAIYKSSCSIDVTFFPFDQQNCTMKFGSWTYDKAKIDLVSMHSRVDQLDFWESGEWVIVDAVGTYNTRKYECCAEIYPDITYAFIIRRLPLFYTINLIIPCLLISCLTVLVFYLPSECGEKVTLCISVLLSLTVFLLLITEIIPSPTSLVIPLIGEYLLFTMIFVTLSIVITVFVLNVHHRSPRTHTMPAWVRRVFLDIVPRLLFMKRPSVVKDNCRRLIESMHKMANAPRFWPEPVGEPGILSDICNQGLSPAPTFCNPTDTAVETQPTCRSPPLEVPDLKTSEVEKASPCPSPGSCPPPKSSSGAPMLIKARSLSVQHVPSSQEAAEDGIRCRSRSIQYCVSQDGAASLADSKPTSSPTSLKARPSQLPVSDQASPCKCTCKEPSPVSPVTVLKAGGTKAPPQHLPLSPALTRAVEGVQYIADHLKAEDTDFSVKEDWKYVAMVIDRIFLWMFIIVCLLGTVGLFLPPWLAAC
Sequence of Neuronal acetylcholine receptor subunit alpha-2 (P12389 whole entry): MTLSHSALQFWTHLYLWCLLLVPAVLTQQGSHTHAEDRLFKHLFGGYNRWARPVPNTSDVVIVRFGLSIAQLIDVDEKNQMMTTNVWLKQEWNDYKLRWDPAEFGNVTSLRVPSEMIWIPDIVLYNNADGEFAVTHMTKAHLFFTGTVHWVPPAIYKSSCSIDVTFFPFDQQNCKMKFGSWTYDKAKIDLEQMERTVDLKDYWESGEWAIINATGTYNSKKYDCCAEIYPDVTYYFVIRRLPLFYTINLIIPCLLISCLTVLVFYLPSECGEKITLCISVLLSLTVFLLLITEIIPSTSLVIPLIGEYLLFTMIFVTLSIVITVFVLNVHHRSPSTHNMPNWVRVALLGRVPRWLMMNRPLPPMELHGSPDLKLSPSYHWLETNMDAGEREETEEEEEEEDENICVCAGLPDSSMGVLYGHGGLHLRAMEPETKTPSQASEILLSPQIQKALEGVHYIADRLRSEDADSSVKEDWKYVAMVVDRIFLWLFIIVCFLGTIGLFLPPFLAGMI
Sequence of Neuronal acetylcholine receptor subunit alpha-3 (P04757 whole entry): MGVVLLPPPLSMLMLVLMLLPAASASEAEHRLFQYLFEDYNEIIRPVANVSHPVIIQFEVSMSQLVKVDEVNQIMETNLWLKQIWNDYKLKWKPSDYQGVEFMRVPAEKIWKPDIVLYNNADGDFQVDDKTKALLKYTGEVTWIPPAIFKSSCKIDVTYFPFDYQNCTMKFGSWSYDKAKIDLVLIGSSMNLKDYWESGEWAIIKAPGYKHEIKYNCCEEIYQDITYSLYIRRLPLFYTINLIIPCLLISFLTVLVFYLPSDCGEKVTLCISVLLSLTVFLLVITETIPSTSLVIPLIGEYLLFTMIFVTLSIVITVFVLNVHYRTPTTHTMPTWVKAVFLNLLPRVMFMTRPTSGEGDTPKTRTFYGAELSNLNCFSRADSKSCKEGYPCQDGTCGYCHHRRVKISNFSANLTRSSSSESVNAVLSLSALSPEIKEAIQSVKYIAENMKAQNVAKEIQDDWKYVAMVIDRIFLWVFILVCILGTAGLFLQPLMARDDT

`CO[C@H]1CC=C2CCN3CCC4=C(CC(=O)OC4)[C@]23C1`: the Ki (in general, the equilibrium dissociation constant of an inhibitor or competing ligand from its target) is 6200 nM and > 10000 nM in experiment [1]; 3800 nM and > 10000 nM in experiment [2].

The molecule `CC(=O)OCC[N+](C)(C)C` [2-acetoxyethyl(trimethyl)ammonium;perchlorate] had a Ki in experiment [1] of 11 nM.

Regarding `C[N+](C)(C)CCO` [2-hydroxy-N,N,N-trimethylethanaminium], the Ki in experiment [3], in experiment [1] and in experiment [2] was > 10000 nM in each case.

With `C[N+](C)(C)CCOC(N)=O` [(2-Hydroxyethyl)trimethyl ammonium chloride carbamate], the Ki in experiment [3] was 590 nM and 1100 nM; in experiment [1] it was 260 nM and 930 nM; in experiment [2] it was 1100 nM and 4700 nM.

Turning to `c1cncc(OCC2CCN2)c1` (stereo unspecified) [A-85380], the Ki in experiment [1] came to 18 nM.

Consider `O=c1cccc2n1CC1CNCC2C1` (stereo unspecified) [CAS_485-35-8], for which the Ki in experiment [3] is 1.5 nM and 2.1 nM; in experiment [1], 1.1 nM and 5.4 nM; in experiment [2], 37 nM and 220 nM.

Regarding `CCN1CC2(COC(=O)c3ccccc3-n3c(O)cc(C)c3O)CCC(OC)C34C5CC6C(OC)CC(O)(C5C6OC)C(O)(C(OC)C23)C14` (stereo unspecified) [CAS_21019-30-7], the Ki in experiment [3] was > 10000 nM and 6400 nM; in experiment [1], > 10000 nM.

As to `Ic1ccc(C2CC3CCC2N3)cn1` (stereo unspecified) [IPH], the Ki is 0.33 nM in experiment [4]; 0.15 nM in experiment [3]; 0.11 nM and 0.15 nM in experiment [1]; 0.18 nM and 0.98 nM in experiment [2].

With `CNC1(C)C2CCC(C2)C1(C)C` (stereo unspecified) [Methyl-(2,3,3-trimethyl-bicyclo[2.2.1]hept-2-yl)-amine(Mecamylamine)], the Ki in experiment [3] and in experiment [1] was > 10000 nM throughout.
